Target: human Factor XIa (Homo sapiens (Human), UniProt P03951)
Assay: Factor XIa Assay
Assay type: biochemical
Details: for IC50: human Factor XIa 0.04 nM, 30 min pre-incubation at 25° C., substrate GPR-AFC, read-out: FXIa IC50; for inhibition at 1 µM: @ 1000 nM compound, read-out: FXIa % Inh. @ 1000 nM
Procedure: The effectiveness of a compound of the present invention as an inhibitor of Coagulation Factor XIa can be determined using a relevant purified serine protease, and an appropriate synthetic substrate. The rate of hydrolysis of the chromogenic or fluorogenic substrate by the relevant serine protease was measured both in the absence and presence of compounds of the present invention. Assays were conducted at room temperature or at 37° C. […] A decrease in the rate of fluorescence change in the presence of inhibitor is indicative of enzyme inhibition. Such methods are known to one skilled in the art. The results of this assay are expressed as the half-maximal inhibitory concentrations (IC50), or the inhibitory constant, Ki.
Compounds were pre-incubated for 30 minutes at 25° C. with human (0.04 nM) Factor XIa in 50 mM HEPES buffer with 150 mM sodium chloride, 5 mM calcium chloride, 0.1% PEG 8000, pH 7.4. Factor XIa enzymatic activity was determined by addition of the substrate glycine-proline-arginine-7-amido-4-trifluoromethylcoumarin (GPR-AFC) and measurement of the fluorescence at 400/505 nm after a 60 minute incubation at 25° C. The % inhibition for each data point was calculated from the data and analyzed using the log (inhibitor) vs. response four parameters equation to determine the half-maximal inhibitory concentrations (IC50). The IC50 were converted to equilibrium inhibitory constants (Ki) using the Cheng-Prusoff equation.

Chain of human Factor XIa (P03951 388-625): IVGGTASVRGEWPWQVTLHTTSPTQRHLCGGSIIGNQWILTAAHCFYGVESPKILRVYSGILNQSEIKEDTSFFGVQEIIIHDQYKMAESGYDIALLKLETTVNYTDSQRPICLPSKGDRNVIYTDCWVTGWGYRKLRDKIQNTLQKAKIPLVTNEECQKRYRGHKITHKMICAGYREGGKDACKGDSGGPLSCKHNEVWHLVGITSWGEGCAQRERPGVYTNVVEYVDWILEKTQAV
Chain of human Factor XIa (P03951 19-387 partner): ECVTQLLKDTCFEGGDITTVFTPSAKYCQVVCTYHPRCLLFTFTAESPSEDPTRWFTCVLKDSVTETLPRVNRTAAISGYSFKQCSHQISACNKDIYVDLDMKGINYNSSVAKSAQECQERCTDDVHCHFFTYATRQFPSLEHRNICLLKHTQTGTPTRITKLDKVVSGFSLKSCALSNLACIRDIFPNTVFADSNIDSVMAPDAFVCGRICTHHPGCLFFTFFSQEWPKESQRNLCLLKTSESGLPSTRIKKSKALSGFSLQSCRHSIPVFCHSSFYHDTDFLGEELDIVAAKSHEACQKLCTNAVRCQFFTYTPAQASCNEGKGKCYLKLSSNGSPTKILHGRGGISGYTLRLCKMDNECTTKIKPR

Row | IC50 | inhibition at 1 µM | SMILES
1 | 370 nM |  | CC1CC1C[C@H](C(=O)Nc1ccc(C(=O)O)cc1)c1ccc(-c2c(OC(F)F)ccc(Cl)c2F)c[n+]1[O-] (single isomer, unassigned) [Example 54]
2 |  | 47% | O=C(O)c1ccc(NC(=O)[C@H](CC2CC2)c2ccc(-c3c(OC(F)F)ccc(Cl)c3F)c[n+]2[O-])cc1 (single isomer, unassigned) [Example 1]
3 | 299 nM |  | C[C@]1(O)CC[C@@H](CC(C(=O)Nc2ccc(C(=O)O)cc2)c2ccc(-c3c(C(F)F)ccc(Cl)c3F)c[n+]2[O-])CC1 (single isomer, unassigned) [Example 44, 2-(1-((4-carboxyphenyl)amino)-3-((1s,4s)-4-hydroxy-4-methylcyclohexyl)-1-oxopropan-2-yl)-5-(3-chloro-6-(difluoromethyl)-2-fluorophenyl)pyridine 1-oxide]
4 | > 1000 nM | 35% | O=C(O)c1ccc(NC(=O)[C@@H](CC2CC2)c2ccc(-c3c(OCC4CC4)ccc(Cl)c3F)c[n+]2[O-])cc1 [Example 12, (S)-4-[(2-{5-[3-chloro-6-(cyclopropylmethoxy)-2-fluorophenyl]-1-oxidopyridin-2-yl}-3-cyclopropylpropanoyl)amino] benzoic acid]
5 | 166 nM |  | CCOC(=O)c1ccc(NC(=O)[C@H](CC2CCC2)c2ccc(-c3c(C(F)F)ccc(Cl)c3F)c[n+]2[O-])cc1 [Example 5, (R)-5-(3-chloro-6-(difluoromethyl)-2-fluorophenyl)-2-(3-cyclobutyl-1-((4-(ethoxycarbonyl)phenyl)amino)-1-oxopropan-2-yl)pyridine 1-oxide]
6 | 58.4 nM |  | O=C(O)c1ccc(NC(=O)C(CC2CC2)c2ccc(-c3c(C(F)F)ccc(Cl)c3F)c[n+]2[O-])cc1F (single isomer, unassigned) [Example 117, 2-(1-((4-carboxy-3-fluorophenyl)amino)-3-cyclopropyl-1-oxopropan-2-yl)-5-(3-chloro-6-(difluoromethyl)-2-fluorophenyl)pyridine 1-oxide]
7 | 286 nM |  | CC(C1CC1)C(C(=O)Nc1ccc(C(=O)O)cc1)c1ccc(-c2c(OC(F)F)ccc(Cl)c2F)c[n+]1[O-] (single isomer, unassigned) [Example 59, 2-(1-((4-carboxyphenyl)amino)-3-cyclopropyl-1-oxobutan-2-yl)-5-(3-chloro-6-(difluoromethoxy)-2-fluorophenyl)pyridine 1-oxide]
8 | 1000 nM | 37% | CC1CCC1CC(C(=O)Nc1ccc(C(=O)O)cc1)c1ccc(-c2c(OC(F)F)ccc(Cl)c2F)c[n+]1[O-] (single isomer, unassigned) [Example 104, 2-(1-((4-carboxyphenyl)amino)-3-(2-methylcyclobutyl)-1-oxopropan-2-yl)-5-(3-chloro-6-(difluoromethoxy)-2-fluorophenyl)pyridine 1-oxide]
9 | > 1000 nM | 33% | O=C(O)c1ccc(NC(=O)C(CC2CC2)c2ccc(-c3cc(Cl)ccc3C(F)(F)F)c[n+]2[O-])cc1 (single isomer, unassigned) [Example 24, (S)- or (R)-2-(1-((4-carboxyphenyl)amino)-3-cyclopropyl-1-oxopropan-2-yl)-5-(5-chloro-2-(trifluoromethyl)phenyl)pyridine 1-oxide]
10 |  | 47% | O=C(O)c1ccc(NC(=O)C(CC2CC(F)(F)C2)c2ccc(-c3c(OC(F)F)ccc(Cl)c3F)c[n+]2[O-])cc1 (racemic) [Example 49, (S)- and (R)-2-(1-((4-carboxyphenyl)amino)-3-(3,3-difluorocyclobutyl)-1-oxopropan-2-yl)-5-(3-chloro-6-(difluoromethoxy)-2-fluorophenyl)pyridine 1-oxide]
11 |  | 44% | O=C(O)c1ccc(NC(=O)C(CC2CC(F)C2)c2ccc(-c3c(OC(F)F)ccc(Cl)c3F)c[n+]2[O-])cc1 (single isomer, unassigned) [Example 101, 2-(1-((4-carboxyphenyl)amino)-3-(3-fluorocyclobutyl)-1-oxopropan-2-yl)-5-(3-chloro-6-(difluoromethoxy)-2-fluorophenyl)pyridine 1-oxide]
12 | > 1000 nM | 34% | Cc1cc(C(CC2CC2)C(=O)Nc2ccc(C(=O)O)cc2)[n+]([O-])cc1-c1c(OC(F)F)ccc(Cl)c1F [Example 66, (S)- and (R)-2-(1-((4-carboxyphenyl)amino)-3-cyclopropyl-1-oxopropan-2-yl)-5-(3-chloro-6-(difluoromethoxy)-2-fluorophenyl)-4-methylpyridine 1-oxide]
13 | 157 nM |  | CC1(C)CC1CC(C(=O)Nc1ccc(C(=O)O)cc1)c1ccc(-c2c(OC(F)F)ccc(Cl)c2F)c[n+]1[O-] (single isomer, unassigned) [Example 111, 2-(1-((4-carboxyphenyl)amino)-3-(2,2-dimethylcyclopropyl)-1-oxopropan-2-yl)-5-(3-chloro-6-(difluoromethoxy)-2-fluorophenyl)pyridine 1-oxide]
14 |  | 0% | CCOC(=O)c1ccc(NC(=O)C(CC2CC2)c2ccc(-c3c(C(F)F)ccc(Cl)c3F)c[n+]2[O-])cc1 (single isomer, unassigned) [Example 115, 5-(3-chloro-6-(difluoromethyl)-2-fluorophenyl)-2-(3-cyclopropyl-1-((4-(ethoxycarbonyl)phenyl)amino)-1-oxopropan-2-yl)pyridine 1-oxide]
15 | 3.79 nM |  | CC1CCC1CC(C(=O)Nc1ccc(C(=O)O)cc1)c1ccc(-c2c(OC(F)F)ccc(Cl)c2F)c[n+]1[O-] (single isomer, unassigned) [Example 106, 2-(1-((4-carboxyphenyl)amino)-3-(2-methylcyclobutyl)-1-oxopropan-2-yl)-5-(3-chloro-6-(difluoromethoxy)-2-fluorophenyl)pyridine 1-oxide]
16 | > 1000 nM | 49% | C[C@]1(O)CC[C@@H](CC(C(=O)Nc2ccc(C(=O)O)cc2)c2ccc(-c3c(OC(F)F)ccc(Cl)c3F)c[n+]2[O-])CC1 (single isomer, unassigned) [Example 41, 2-(1-((4-carboxyphenyl)amino)-3-((1s,4s)-4-hydroxy-4-methylcyclohexyl)-1-oxopropan-2-yl)-5-(3-chloro-6-(difluoromethoxy)-2-fluorophenyl)pyridine 1-oxide]
17 | 128 nM |  | C[C@]1(O)CC[C@H](CC(C(=O)Nc2ccc(C(=O)O)cc2)c2ccc(-c3c(C(F)F)ccc(Cl)c3F)c[n+]2[O-])CC1 (single isomer, unassigned) [Example 46, 2-(1-((4-carboxyphenyl)amino)-3-((1r,4r)-4-hydroxy-4-methylcyclohexyl)-1-oxopropan-2-yl)-5-(3-chloro-6-(difluoromethyl)-2-fluorophenyl)pyridine 1-oxide]
18 | 24.7 nM |  | O=C(O)c1ccc(NC(=O)C(CC23CC(C2)C3)c2ccc(-c3c(C(F)F)ccc(Cl)c3F)c[n+]2[O-])cc1F (single isomer, unassigned) [Example 123, 2-(3-(bicyclo[1.1.1]pentan-1-yl)-1-((4-carboxy-3-fluorophenyl)amino)-1-oxopropan-2-yl)-5-(3-chloro-6-(difluoromethyl)-2-fluorophenyl)pyridine 1-oxide]
19 | 26 nM |  | O=C(O)c1ccc(NC(=O)C(C[C@H]2CC[C@H](O)CC2)c2ccc(-c3c(C(F)F)ccc(Cl)c3F)c[n+]2[O-])cc1 (single isomer, unassigned) [Example 36, (S)- or (R)-2-(1-((4-carboxyphenyl)amino)-3-((1r,4r)-4-hydroxycyclohexyl)-1-oxopropan-2-yl)-5-(3-chloro-6-(difluoromethyl)-2-fluorophenyl)pyridine 1-oxide]
20 | 36 nM |  | COc1ccc(Cl)c(F)c1-c1ccc(C(CC2CC2)C(=O)Nc2ccc(C(=O)O)cc2)[n+]([O-])c1 (single isomer, unassigned) [Example 11, (R)- or (S)-4-({2-[5-(3-chloro-2-fluoro-6-methoxyphenyl)-1-oxidopyridin-2-yl]-3-cyclopropylpropanoyl}amino) benzoic acid]
21 | > 1000 nM | 39% | O=C(O)c1ccc(NC(=O)C(CC2CC2)c2ccc(-c3c(C(F)(F)F)ccc(Cl)c3F)c[n+]2[O-])cc1 (single isomer, unassigned) [Example 26, (S)- or (R)-2-(1-((4-carboxyphenyl)amino)-3-cyclopropyl-1-oxopropan-2-yl)-5-(3-chloro-2-fluoro-6-(trifluoromethyl)phenyl)pyridine 1-oxide]
22 | 83 nM |  | COC(=O)c1ccc(NC(=O)C(CC2CCC2)c2ccc(-c3c(C(F)F)ccc(Cl)c3F)c[n+]2[O-])cc1 (single isomer, unassigned) [Example 21, (R)- or (S)-methyl 4-[(2-{5-[3-chloro-6-(difluoromethyl)-2-fluorophenyl]-1-oxidopyridin-2-yl}-3-cyclobutylpropanoyl)amino]benzoate]

Row | SMILES | IC50 | inhibition at 1 µM
23 | O=C(O)c1ccc(NC(=O)[C@@H](CC2CC2)c2ccc(-c3c(C(F)F)ccc(Cl)c3F)c[n+]2[O-])cc1 (mixture of isomers) [Example 22, (S)- and (R)-2-(1-((4-carboxyphenyl)amino)-3-cyclopropyl-1-oxopropan-2-yl)-5-(3-chloro-6-(difluoromethyl)-2-fluorophenyl)pyridine 1-oxide] | 240 nM | 
